These results are taken from ChEMBL document CHEMBL1201862, “PubChem BioAssay data set” (2004).

Some test systems named below: A549; UACC-257; NCI-H226; NCI/ADR-RES; NCI-H522; HCT-15; SN12C; SK-MEL-28; SNB-19; HT-29; SF-268; OVCAR-4; 786-0; MDA-MB-435; Malme-3M; A498; CAKI-1; DU-145.
Common to all, as to experiment: NCI anticancer screen, dose series, 48 h

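Grown in 96-well plates, cells were treated for 48 hours with each compound at five concentrations. Insufficient inhibition: endpoint recorded as highest concentration tested. GI50 marks 50% less growth.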 The source made the active and inactive calls. Rule as the data show it: active = GI50 up to about 1.1 µM and inactive = higher.

With `COc1cc(NCCC(=O)O)c2ncccc2c1`, the GI50 is > 100 µM (inactive) in the assay with A549; > 100 µM (inactive) in the assay with UACC-257; > 100 µM (inactive) in the assay with NCI-H226; > 100 µM (inactive) in the assay with NCI/ADR-RES; > 100 µM (inactive) with NCI-H522; more than 100 µM with HCT-15. Moreover, the GI50 in the assay on SN12C, in the assay on SK-MEL-28, in the assay with SNB-19, in the assay on HT-29, in the assay with SF-268 and with OVCAR-4 was > 100 µM (inactive) in each case. Moreover, the GI50 in the assay with 786-0, in the assay with MDA-MB-435, in the assay on Malme-3M and in the assay with A498 was > 100 µM (inactive) in each case.

As to `O=C(O)c1oc(C(=O)O)c(C(=O)O)c1C(=O)O`, the GI50 in the assay with A549 is > 100 µM (inactive); in the assay with UACC-257, > 100 µM (inactive); in the assay on NCI-H226, 58.9 µM (inactive); in the assay with NCI/ADR-RES, > 100 µM (inactive); with NCI-H522 it was > 100 µM (inactive); in the assay on HCT-15, more than 100 µM. Also, the GI50 in the assay on SN12C, in the assay on SK-MEL-28, in the assay on SNB-19, with HT-29, in the assay with SF-268 and in the assay on CAKI-1 was > 100 µM (inactive) in each case. In addition, the GI50 with OVCAR-4, with DU-145, with 786-0, with Malme-3M and with A498 was > 100 µM (inactive) each time.

`[N-]=[N+]=Nc1cc(=O)n(-c2ccccc2)c(=O)n1-c1ccccc1`: the GI50 with A549, in the assay with UACC-257, in the assay on NCI-H226, in the assay with NCI/ADR-RES, in the assay with NCI-H522 and with SN12C was > 100 µM (inactive) in each case. For the same compound, the GI50 with SK-MEL-28, with SNB-19, in the assay on HT-29, in the assay on SF-268, in the assay on CAKI-1 and in the assay on OVCAR-4 was > 100 µM (inactive) in each case. Also, the GI50 in the assay on 786-0, in the assay with MDA-MB-435 and in the assay on Malme-3M was > 100 µM (inactive) each time.

As to `CCOC(=O)N/N=C(/N)c1cccc(Br)c1`, the GI50 was > 100 µM (inactive) with A549; > 100 µM (inactive) in the assay with UACC-257; > 100 µM (inactive) in the assay on NCI/ADR-RES; > 100 µM (inactive) with NCI-H522; more than 100 µM with HCT-15; > 100 µM (inactive) in the assay on SN12C. For the same compound, the GI50 in the assay on SNB-19 was 78.9 µM (inactive); in the assay with HT-29 it was > 100 µM (inactive); in the assay on SF-268 it was > 100 µM (inactive); in the assay with CAKI-1 it was > 100 µM (inactive); with OVCAR-4, > 100 µM (inactive); in the assay with DU-145, > 100 µM (inactive). The GI50 in the assay with 786-0 and in the assay on Malme-3M was > 100 µM (inactive) in each case.

Turning to `Nc1ccc(C23CC4CC(C2)CC(c2ccc(N)cc2)(C4)C3)cc1`, the GI50 in the assay on A549 is > 100 µM (inactive); in the assay on UACC-257, 75.5 µM (inactive); in the assay with NCI-H226, 11.5 µM (inactive); in the assay with NCI/ADR-RES, 56.8 µM (inactive); with HCT-15, 14.5 µM; in the assay on SN12C, 25.1 µM (inactive). In addition, the GI50 was 15 µM (inactive) with SK-MEL-28; 37.8 µM (inactive) in the assay on SNB-19; 45.2 µM (inactive) with SF-268; > 100 µM (inactive) with CAKI-1; 10.2 µM (inactive) with OVCAR-4; 51.2 µM (inactive) with DU-145. Besides, the GI50 is 38.5 µM (inactive) with 786-0, 0.164 µM (active) in the assay on MDA-MB-435 and 15.7 µM (inactive) with A498.

For the compound `CC1=NC(=Cc2cccc(Cl)c2)C(=O)N1n1c(-c2ccccc2)nc2ccccc2c1=O`, the GI50 in the assay on A549 is 35.8 µM (inactive); in the assay on UACC-257, 28.6 µM (inactive); with NCI-H226, 90.4 µM (inactive); in the assay on NCI-H522, 17.5 µM (inactive); in the assay with HCT-15 it was 39.3 µM; in the assay with SN12C, 40.4 µM (inactive). Also, the GI50 with SK-MEL-28 is > 10 µM (inactive); in the assay on SNB-19 it was 59.2 µM (inactive); in the assay with HT-29 it was 36 µM (inactive); in the assay on SF-268, 65.3 µM (inactive); with CAKI-1 it was 22.8 µM (inactive); in the assay with DU-145 it was 38.9 µM (inactive). Besides, the GI50 in the assay on 786-0 is 48.6 µM (inactive); with MDA-MB-435, 41 µM (inactive); in the assay on Malme-3M, 26.9 µM (inactive); in the assay on A498, 26.4 µM (inactive).

On to `COc1cc(C)cc(C(=O)/C=C/c2ccccc2)c1O`, for which the GI50 with A549 is 30.3 µM (inactive); in the assay on UACC-257, 16.7 µM (inactive); in the assay with NCI-H226 it was 24.2 µM (inactive); in the assay on NCI/ADR-RES, 21.4 µM (inactive); with NCI-H522 it was 17.9 µM (inactive); with HCT-15, 18.1 µM. The GI50 was 16.9 µM (inactive) in the assay on SN12C; 19.4 µM (inactive) in the assay on SK-MEL-28; 16 µM (inactive) in the assay on SNB-19; 18.3 µM (inactive) in the assay with HT-29; 25.6 µM (inactive) with SF-268; 19.5 µM (inactive) with CAKI-1. For the same compound, the GI50 in the assay on OVCAR-4 is 20.2 µM (inactive); in the assay with DU-145, 14.1 µM (inactive); in the assay with 786-0 it was 17.8 µM (inactive); in the assay with MDA-MB-435, 26.9 µM (inactive); in the assay on A498, 18.3 µM (inactive).

With `C=C1[C@@H](OC(C)=O)[C@H]2[C@@H](OC(C)=O)[C@@](C)(OC(C)=O)C[C@]2(OC(C)=O)C(=O)[C@@H](C)/C=C/C(C)(C)C(=O)C[C@H]1OC(C)=O`, the GI50 in the assay on A549 was > 100 µM (inactive); with UACC-257, > 100 µM (inactive); in the assay with NCI-H226 it was > 100 µM (inactive); with NCI/ADR-RES, 88.1 µM (inactive); in the assay with NCI-H522, 45.3 µM (inactive); in the assay with HCT-15, more than 100 µM. For the same compound, the GI50 is > 100 µM (inactive) in the assay on SN12C; > 100 µM (inactive) in the assay with SK-MEL-28; > 100 µM (inactive) with SNB-19; 36.6 µM (inactive) in the assay with HT-29; > 100 µM (inactive) in the assay with CAKI-1; 35.2 µM (inactive) in the assay on OVCAR-4. Further, the GI50 in the assay with DU-145, in the assay on 786-0, in the assay with MDA-MB-435 and with Malme-3M was > 100 µM (inactive) each time.

Consider `COc1ccc(C(=O)N2CCN(c3ccc4c(c3)OCC(=O)N4)CC2)cc1OC`, for which the GI50 in the assay with A549 was > 100 µM (inactive); with UACC-257, > 100 µM (inactive); in the assay on NCI-H226, > 100 µM (inactive); in the assay on NCI/ADR-RES, > 100 µM (inactive); in the assay on NCI-H522 it was 71.1 µM (inactive); in the assay on HCT-15, more than 100 µM. Besides, the GI50 with SN12C was > 100 µM (inactive); in the assay with SK-MEL-28, > 100 µM (inactive); in the assay with SNB-19, > 100 µM (inactive); in the assay with HT-29 it was > 100 µM (inactive); in the assay with SF-268, > 100 µM (inactive); in the assay on OVCAR-4 it was 38.1 µM (inactive). Also, the GI50 in the assay with DU-145, in the assay with 786-0, with MDA-MB-435 and with Malme-3M was > 100 µM (inactive) in each case.

As to `O=C1[C@@H]2C[C@@H](O)CN2C(=O)c2ccccc2N1CCCO`, the GI50 in the assay on A549 is > 100 µM (inactive); in the assay with UACC-257 it was > 100 µM (inactive); in the assay on NCI-H226, > 100 µM (inactive); with NCI/ADR-RES, > 100 µM (inactive); in the assay with NCI-H522, > 100 µM (inactive); in the assay on HCT-15, more than 100 µM. The GI50 in the assay on SN12C, in the assay on SK-MEL-28, in the assay with SNB-19, in the assay on HT-29, in the assay with SF-268 and in the assay with DU-145 was > 100 µM (inactive) each time. For the same compound, the GI50 in the assay on 786-0, in the assay with MDA-MB-435 and in the assay with A498 was > 100 µM (inactive) each time.

With `O=[N+]([O-])c1cccc2c(/N=N/c3ccc4ccccc4c3O)c(O)cc(S(=O)(=O)O)c12`, the GI50 with A549 is 32.7 µM (inactive); in the assay with UACC-257 it was 31.8 µM (inactive); in the assay on NCI-H226, 22.6 µM (inactive); in the assay on NCI/ADR-RES, 17 µM (inactive); in the assay with NCI-H522, 7.36 µM (inactive); in the assay with HCT-15 it was 14.1 µM. Moreover, the GI50 in the assay on SN12C is 64.7 µM (inactive); with SK-MEL-28 it was 44.3 µM (inactive); in the assay with SNB-19, > 100 µM (inactive); in the assay on HT-29 it was 34.1 µM (inactive); in the assay on SF-268 it was 23.6 µM (inactive); in the assay on CAKI-1 it was 2 µM (inactive). In addition, the GI50 in the assay with OVCAR-4 was 57.9 µM (inactive); with 786-0, 17.8 µM (inactive); with MDA-MB-435, 23.8 µM (inactive); with Malme-3M, 14.6 µM (inactive).

As for `O=S(=O)(O)c1ccc(O)c(/N=N/c2c(O)ccc3ccccc23)c1`, the GI50 with A549 is > 100 µM (inactive); with UACC-257, > 100 µM (inactive); in the assay with NCI-H226 it was > 100 µM (inactive); in the assay on NCI/ADR-RES, > 100 µM (inactive); in the assay with NCI-H522, > 100 µM (inactive); in the assay on HCT-15, more than 100 µM. Besides, the GI50 in the assay on SN12C, in the assay on SK-MEL-28, in the assay on SNB-19, in the assay on HT-29, in the assay on SF-268 and in the assay with CAKI-1 was > 100 µM (inactive) in each case. Also, the GI50 in the assay on OVCAR-4, in the assay on DU-145, in the assay with 786-0, with MDA-MB-435 and in the assay on A498 was > 100 µM (inactive) each time.

As to `COc1cc(-c2oc3c(OC)cc(OC)c(O)c3c(=O)c2OC)cc(OC)c1OC`, the GI50 in the assay on A549 is > 100 µM (inactive); in the assay with NCI-H226, > 100 µM (inactive); in the assay on NCI/ADR-RES, 5.46 µM (inactive); in the assay with NCI-H522, 3.38 µM (inactive); in the assay on SN12C it was > 100 µM (inactive); with SK-MEL-28 it was > 100 µM (inactive). For the same compound, the GI50 in the assay on SNB-19 is 3.82 µM (inactive); with HT-29, > 100 µM (inactive); in the assay with SF-268, 6.95 µM (inactive); in the assay on CAKI-1, 14.4 µM (inactive); in the assay on OVCAR-4, 2.23 µM (inactive); in the assay on DU-145, 32.7 µM (inactive). The GI50 in the assay with 786-0 is 4.02 µM (inactive); in the assay on MDA-MB-435, > 100 µM (inactive); in the assay with Malme-3M, 5.97 µM (inactive).
